# Tested on: A375 cells (melanoma)
# Experiment: A375 sc xenograft animal model
# Assay type: in vivo, athymic mice (BALB/c, nu/nu)
# Settings: for % inhibition: vs vehicle
# Text: The ability of human tumors to grow as xenografts in athymic mice (e.g., Balb/c, nu/nu) provides a useful in vivo model for studying the biological response to therapies for human tumors. Since the first successful xeno-transplantation of human tumors into athymic mice, (Rygaard and Poylsen, 1969, Acta Pathol. Microbial. Scand., 77:758-760), many different human tumor cell lines (e.g., mammary, lung, genitourinary, gastro-intestinal, head and neck, glioblastoma, bone, and malignant melanomas) have been transplanted and successfully grown in nude mice. The following assays may be used to determine the level of activity, specificity and effect of the different compounds of the present invention. Three general types of assays are useful for evaluating compounds: cellular/catalytic, cellular/biological and in vivo. The object of the cellular/catalytic assays is to determine the effect of a compound on the ability of a TK to phosphorylate tyrosines on a known substrate in a cell. The object of the cellular/biological assays is to determine the effect of a compound on the biological response stimulated by a TK in a cell. The object of the in vivo assays is to determine the effect of a compound in an animal model of a particular disorder such as cancer.
# Suitable cell lines for subcutaneous xenograft experiments include C6 cells (glioma, ATCC #CCL 107), A375 cells (melanoma, ATCC #CRL 1619), A431 cells (epidermoid carcinoma, ATCC #CRL 1555), Calu 6 cells (lung, ATCC #HTB 56), PC3 cells (prostate, ATCC #CRL 1435), SKOV3TP5 cells and NIH 3T3 fibroblasts genetically engineered to overexpress EGFR, PDGFR, IGF-1R or any other test kinase. The following protocol can be used to perform xenograft experiments:
# Female athymic mice (BALB/c, nu/nu) are obtained from Simonsen Laboratories (Gilroy, Calif.). All animals are maintained under clean-room conditions in Micro-isolator cages with Alpha-dri bedding. They receive sterile rodent chow and water ad libitum.
# Cell lines are grown in appropriate medium (for example, MEM, DMEM, Ham's F10, or Ham's F12 plus 5%-10% fetal bovine serum (FBS) and 2 mM glutamine (GLN)). All cell culture media, glutamine, and fetal bovine serum are purchased from Gibco Life Technologies (Grand Island, N.Y.) unless otherwise specified. All cells are grown in a humid atmosphere of 90-95% air and 5-10% CO2 at 37° C. All cell lines are routinely subcultured twice a week and are negative for mycoplasma as determined by the Mycotect method (Gibco).
# Cells are harvested at or near confluency with 0.05% Trypsin-EDTA and pelleted at 450×g for 10 min. Pellets are resuspended in sterile PBS or media (without FBS) to a particular concentration and the cells are implanted into the hindflank of the mice (8-10 mice per group, 2-10×10^6 cells/animal). Tumor growth is measured over 3 to 6 weeks using venier calipers. Tumor volumes are calculated as a product of length×width×height unless otherwise indicated. P values are calculated using the Students t-test. Test compounds in 50-100 μL excipient (DMSO, or VPD:D5W (U.S. Pat. No. 5,610,173 to Sxhwartz, et al.), can be delivered by IP injection at different concentrations generally starting at day one after implantation.
smiles,measurement,setting,value
"COc1ccc2c(c1)C(CC(=O)[O-])CC2=C1C(=O)Nc2ccccc21.[Na+] (stereo not drawn) [Compound 13, [6-Methoxy-3-(2-oxo-1,2-dihydroindol-3-ylidene)-indan-1-yl]acetic Acid Sodium Salt]",Average Tumor Volume,50 mg/kg/day,569.9 mm3
same,% inhibition,50 mg/kg/day,24.6%
same,Average Tumor Volume,100 mg/kg/day,324.4 mm3
same,% inhibition,100 mg/kg/day,57.1%
same,Average Tumor Volume,200 mg/kg/day,278.8 mm3
same,% inhibition,200 mg/kg/day,63.1%
